Measured values taken from patent US20250206722A1, “SMALL MOLECULE INHIBITORS OF TEA DOMAIN FAMILY MEMBERS” (The Scripps Research Institute, priority 2022, published 2025).

Experiments:
[1] = system: transcriptional activity of TEADs; assay: TEAD reporter assay (MCF7 TEAD-LUC reporter cells); assay type: cell-based; settings: Homo sapiens, 24 hours, BrightGlo luminescence
Description: MCF7 TEAD-LUC reporter cells were obtained from BPS Bioscience, Inc. and cultured in DMEM medium (Corning, 10-013-CV) supplemented with 10% fetal bovine serum (Gibco, 10438-026), 1% penicillin-streptomycin (Gibco, 15070063), 1% non-essential amino acids (Gibco, 15070063), and 10 μg/mL insulin (Sigma, 10516). Cells were trypsinized, resuspended in growth medium, and diluted to a concentrated of 100,000 cells/mL. 5,000 cells, 50 μL of cell suspension, per well were then plated in a white 384-well plate (Corning) and incubated at 37° C., 5% CO2. After 24 hours incubation, 100 nL of test compounds in DMSO, 20-point 1:2 dilution starting from 20 μM (final concentration) in triplicate, were transferred to each well using an Agilent Bravo instrument outfitted with a pintool head. Cells were incubated at 37° C., 5% CO2 for 24 hours followed by the addition of 30 μL of BrightGlo (Promega; diluted 1:3 in water) to each well and luminescence values recorded using an EnVision plate reader.
The in vitro assay results of the compounds in the present invention were included in Table 1. The compounds described herein, inhibited the transcriptional activity of TEADs, as assessed by decreased luminance from a TEAD reporter cell line (MCF7 TEAD-LUC) in response to compound treatment.

NCI-H226 cells = assay: NCI-H226 proliferation assay (in house); assay type: cell-based; settings: Homo sapiens, 120 h, 5 days, Cell TiterGlo, 20-point 1:2 dilution from 20 μM
Description: NCI-H226 Proliferation Assay
NCI-H226 cells were obtained from American Type Culture Collection (ATCC, CRL-5826) and cultured in RPMI 1640 with L-glutamine (Corning, 10-040-CV) supplemented with 10% fetal bovine serum (Gibco, 10438-026) and 1% penicillin-streptomycin (Gibco, 15070063). Cells were trypsinized, resuspended in growth medium, and diluted to a concentrated of 10,000 cells/mL. 500 cells, 50 μL of cell suspension, per well were then plated in a white 384-well plate (Corning) and incubated at 37° C., 5% CO2. After 24 hours incubation, 100 nL of test compounds in DMSO, 20-point 1:2 dilution starting from 20 μM (final concentration) in triplicate, were transferred to each well using an Agilent Bravo instrument outfitted with a pintool head. Cells were incubated at 37° C., 5% CO2 for 5 days followed by the addition of 30 μL of Cell TiterGlo (Promega; diluted 1:6 in water) to each well and luminescence values recorded using an EnVision plate reader. […]

Row | Structure (SMILES) | IC50 [1] | IC50 (NCI-H226 cells)
1 | C=CC(=O)N1CCN(c2nccnc2Oc2ccc(C(F)(F)F)nc2)CC1 [Example 77, 1-(4-(3-((6-(trifluoromethyl)pyridin-3-yl)oxy)pyrazin-2-yl)piperazin-1-yl)prop-2-en-1-one] | 1.8 nM | 0.008 µM
2 | C=C(C(=O)N1CCC(c2nccnc2Oc2ccc(C(F)(F)F)nc2)CC1)C(F)(F)F [Example 81, 2-(trifluoromethyl)-1-(4-(3-((6-(trifluoromethyl)pyridin-3-yl)oxy)pyrazin-2-yl)piperidin-1-yl)prop-2-en-1-one] | 9.5 nM | 2.97 µM
3 | C=C(CN1CCC(c2nccnc2Oc2ccc(C(F)(F)F)nc2)CC1)C(=O)O [Example 82, 2-((4-(3-((6-(trifluoromethyl)pyridin-3-yl)oxy)pyrazin-2-yl)piperidin-1-yl)methyl)acrylic acid] | > 20000 nM | > 20 µM
4 | C=CC(=O)N1CC=C(c2nccnc2Oc2ccc(C(F)(F)F)nc2)CC1 [Example 84, 1-(4-(3-((6-(trifluoromethyl)pyridin-3-yl)oxy)pyrazin-2-yl)-3,6-dihydropyridin-1(2H)-yl)prop-2-en-1-one] | 1.4 nM | 0.0173 µM
5 | C=C(CN1CC(c2nccnc2Oc2ccc(C(F)(F)F)nc2)C1)C(=O)O [Example 86, 2-((3-(3-((6-(trifluoromethyl)pyridin-3-yl)oxy)pyrazin-2-yl)azetidin-1-yl)methyl)acrylic acid] | 31000 nM | 3.01 µM
6 | C=CC(=O)N1CCN(c2nccnc2C(=O)c2ccc(C(F)(F)F)cc2)CC1 [Example 95, 1-(4-(3-(4-(trifluoromethyl)benzoyl)pyrazin-2-yl)piperazin-1-yl)prop-2-en-1-one] | 1.3 nM | 0.012 µM
7 | C=CC(=O)N1CCN(c2nccnc2C(O)c2ccc(C(F)(F)F)cc2)CC1 (stereo not shown) [Example 97, 1-(4-(3-(hydroxy(4-(trifluoromethyl)phenyl)methyl)pyrazin-2-yl)piperazin-1-yl)prop-2-en-1-one] | 3 nM | 0.019 µM
8 | C=CC(=O)N1CCN(c2nccnc2Cc2ccc(C(F)(F)F)cc2)CC1 [Example 98, 1-(4-(3-(4-(trifluoromethyl)benzyl)pyrazin-2-yl)piperazin-1-yl)prop-2-en-1-one] | 0.9 nM | 0.012 µM
9 | C=CC(=O)N1CCN(c2nccnc2C(=O)NC2CCC2)CC1 [Example 99, 3-(4-acryloylpiperazin-1-yl)-N-cyclobutylpyrazine-2-carboxamide] | 142 nM | 2.08 µM
10 | C=CC(=O)N1CCN(c2nccnc2C(=O)NC2CC(F)(F)C2)CC1 [Example 100, 3-(4-acryloylpiperazin-1-yl)-N-(3,3-difluorocyclobutyl)pyrazine-2-carboxamide] | 74 nM | 1.18 µM
11 | C=CC(=O)N1CCN(c2nccnc2C(=O)N2CC3(CC(C(F)(F)F)C3)C2)CC1 [Example 101, 1-(4-(3-(6-(trifluoromethyl)-2-azaspiro[3.3]heptane-2-carbonyl)pyrazin-2-yl)piperazin-1-yl)prop-2-en-1-one] | 13.4 nM | 3.76 µM
12 | C=CC(=O)N1CCN(c2nccnc2C(=O)NC2CCCC2)CC1 [Example 102, 3-(4-acryloylpiperazin-1-yl)-N-cyclopentylpyrazine-2-carboxamide] | 39 nM | 1.6 µM
13 | C=CC(=O)N1CCN(c2nccnc2C(=O)N2CCC(C(F)(F)F)CC2)CC1 [Example 103, 1-(4-(3-(4-(trifluoromethyl)piperidine-1-carbonyl)pyrazin-2-yl)piperazin-1-yl)prop-2-en-1-one] | 166 nM | > 20 µM
14 | C=CC(=O)N1CCN(c2nccnc2C(=O)N2CCC(F)(F)CC2)CC1 [Example 104, 1-(4-(3-(4,4-difluoropiperidine-1-carbonyl)pyrazin-2-yl)piperazin-1-yl)prop-2-en-1-one] | 2220 nM | 2.74 µM
15 | C=CC(=O)N1CCN(c2ncc(O)nc2Nc2ccc(C(F)(F)F)cc2)CC1 [Example 111, 1-(4-(5-hydroxy-3-((4-(trifluoromethyl)phenyl)amino)pyrazin-2-yl)piperazin-1-yl)prop-2-en-1-one] | 239 nM | 5.64 µM
16 | C=C(F)C(=O)N1CCN(c2nc(C)c(C)nc2Nc2ccc(C(F)(F)F)nc2)CC1 [Example 114, 1-(4-(5,6-dimethyl-3-((6-(trifluoromethyl)pyridin-3-yl)amino)pyrazin-2-yl)piperazin-1-yl)-2-fluoroprop-2-en-1-one] | 4.4 nM | 0.072 µM
17 | C=CC(=O)N1CCN(c2cnncc2Nc2ccc(C(F)(F)F)cc2)CC1 [Example 122, 1-(4-(5-((4-(trifluoromethyl)phenyl)amino)pyridazin-4-yl)piperazin-1-yl)prop-2-en-1-one] | 6.8 nM | > 10 µM
18 | C=C(F)C(=O)N1CC=C(c2cnc(C)nc2Oc2ccc(C(F)(F)F)nc2)CC1 [Example 130, 2-fluoro-1-(4-(2-methyl-4-((6-(trifluoromethyl)pyridin-3-yl)oxy)pyrimidin-5-yl)-3,6-dihydropyridin-1(2H)-yl)prop-2-en-1-one] | 1.1 nM | 1.33 µM
19 | C=CC(=O)N1CCC(c2cnc(C)nc2Oc2ccc(C(F)(F)F)nc2)CC1 [Example 131, 1-(4-(2-methyl-4-((6-(trifluoromethyl)pyridin-3-yl)oxy)pyrimidin-5-yl)piperidin-1-yl)prop-2-en-1-one] | 598 nM | 2.25 µM
20 | C=C(F)C(=O)N1CCC(c2cnc(C)nc2Oc2ccc(C(F)(F)F)nc2)CC1 [Example 132, 2-fluoro-1-(4-(2-methyl-4-((6-(trifluoromethyl)pyridin-3-yl)oxy)pyrimidin-5-yl)piperidin-1-yl)prop-2-en-1-one] | 451 nM | 4.31 µM
21 | C=CC(=O)N1CCN(c2nc(OC)ncc2Nc2ccc(C(F)(F)F)cc2)CC1 [Example 133, 1-(4-(2-methoxy-5-((4-(trifluoromethyl)phenyl)amino)pyrimidin-4-yl)piperazin-1-yl)prop-2-en-1-one] | 16.5 nM | 0.722 µM
22 | C=C(F)C(=O)N1CCN(c2ncccc2Nc2ccc(C(F)(F)F)nc2)CC1 [Example 135, 2-fluoro-1-(4-(3-((6-(trifluoromethyl)pyridin-3-yl)amino)pyridin-2-yl)piperazin-1-yl)prop-2-en-1-one] | 410 nM | 1.67 µM
23 | C=CC(=O)N1CC=C(c2ncccc2Oc2ccc(C(F)(F)F)nc2)CC1 [Example 136, 1-(3-((6-(trifluoromethyl)pyridin-3-yl)oxy)-3′,6′-dihydro-[2,4′-bipyridin]-1′(2′H)-yl)prop-2-en-1-one] | 66 nM | 0.341 µM
24 | C=C(F)C(=O)N1CC=C(c2ncccc2Oc2ccc(C(F)(F)F)nc2)CC1 [Example 137, 2-fluoro-1-(3-((6-(trifluoromethyl)pyridin-3-yl)oxy)-3′,6′-dihydro-[2,4′-bipyridin]-1′(2′H)-yl)prop-2-en-1-one] | 22 nM | 0.243 µM
25 | C=C(F)C(=O)N1CCC(c2ncccc2Oc2ccc(C(F)(F)F)nc2)CC1 [Example 139, 2-fluoro-1-(4-(3-((6-(trifluoromethyl)pyridin-3-yl)oxy)pyridin-2-yl)piperidin-1-yl)prop-2-en-1-one] | 3240 nM | 7.03 µM
26 | C=CC(=O)N1CCN(c2ncccc2C(=O)c2ccc(C(F)(F)F)cn2)CC1 [Example 140, 1-(4-(3-(5-(trifluoromethyl)picolinoyl)pyridin-2-yl)piperazin-1-yl)prop-2-en-1-one] | 8.6 nM | 11.1 µM
27 | C=CC(=O)N1CCN(c2ncccc2C(=O)c2ccc(C(F)(F)F)nc2)CC1 [Example 141, 1-(4-(3-(6-(trifluoromethyl)nicotinoyl)pyridin-2-yl)piperazin-1-yl)prop-2-en-1-one] | 7.5 nM | 0.5 µM
28 | C=CC(=O)N1CCN(c2ncccc2C(O)c2ccc(C(F)(F)F)nc2)CC1 (stereo not shown) [Example 142, 1-(4-(3-(hydroxy(6-(trifluoromethyl)pyridin-3-yl)methyl)pyridin-2-yl)piperazin-1-yl)prop-2-en-1-one] | 2.3 nM | 7.28 µM
29 | C=C(F)C(=O)N1CCN(c2cccnc2Nc2ccc(C(F)(F)F)nc2)CC1 [Example 144, 2-fluoro-1-(4-(2-((6-(trifluoromethyl)pyridin-3-yl)amino)pyridin-3-yl)piperazin-1-yl)prop-2-en-1-one] | 8.1 nM | 0.031 µM
